In US20240317706A1, “COMPOUNDS THAT MEDIATE PROTEIN DEGRADATION AND METHODS OF USE THEREOF” (Monte Rosa Therapeutics, Inc., priority 2021, published 2024):

What was measured:
CDK2 = biological target: T1, CDK2 (Homo sapiens, UniProt P24941); assay: HiBiT assay (CDK2 degradation); format: cell-based; details: HEK293 clonal line with CRISPR KI HiBiT tag on CDK2, 24 hours, HiBiT Lysis Reagent
T1 construct: HEK293 clonal lines with CRISPR KI HiBiT tag on CDK2 proteins; host or cells: HEK293 clonal line, CRISPR knock-in HiBiT-CDK2, stably expressing LgBiT
Procedure: HEK293 clonal lines with CRISPR KI HiBiT tag on CDK2 proteins and stably expressing LgBiT protein were obtained from Promega (Madison, WI). Cells were plated at 5000 cells per well using Multiflo (BioTek) in 384-well white solid bottom plates (Corning, 3570BC) in 25 ul volume in DMEM media (DMEM, high glucose, HEPES, no phenol red (ThermoFisher Scientific, 21063029)) containing 10% FBS (Corning, 35-075-CV), 1% Penicillin/Streptomycin (ThermoFisher Scientific, 15140-122). Cells were incubated for 16 hours at 37° C., 5% CO2. 75 nL of a compound at 30 μM were dosed into the plate using an Echo® 650 liquid handler (Labcyte). Cells were incubated at 37° C., 5% CO2 for 24 hours. 5 ul of HiBiT Lysis Reagent (Promega, N3030) is added using Combi Multidrop (ThermoFisher Scientific), plates are incubated for 15′ at 37° C., 5% CO2 and then signal was read on a Pherastar FSX using “LUM plus” optic module.
Analysis was performed in Scinamic (Scinamic, Cambridge, MA). Luminescence response (R) was calculated by the formula: response=100*(S−N)/(P−N) where S is the signal of the well, N and P the mean negative and positive control values respectively of the same plate. The luminescence response was then fitted in Scinamic using a 3-parameter agonist logistic fit (hillslope=1, EC50>0, top/bottom unconstrained).

CRBN-DDB1 = CRBN-DDB1 (Homo sapiens, UniProt Q96SW2); assay: Compound binding to CRBN by HTRF assay; details: CRBN-DDB1 2.5 nM, Cy5-Thalidomide 100 nM, 30 min; Ki from geometric mean IC50 by Cheng-Prustoff transformation
Outline: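 HTRF displacement of Cy5-thalidomide probe (100 nM) from His-CRBN-DDB1 (2.5 nM) with anti-His terbium cryptate, in HEPES/NaCl/TCEP/EDTA/Tween20 buffer. 10-point 1:3 compound series, 30 min at ambient temperature; signal normalised to DMSO and lenalidomide controls, IC50 fitted and Ki derived by Cheng-Prusoff.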

Sequence of CRBN-DDB1 (Q96SW2 whole entry): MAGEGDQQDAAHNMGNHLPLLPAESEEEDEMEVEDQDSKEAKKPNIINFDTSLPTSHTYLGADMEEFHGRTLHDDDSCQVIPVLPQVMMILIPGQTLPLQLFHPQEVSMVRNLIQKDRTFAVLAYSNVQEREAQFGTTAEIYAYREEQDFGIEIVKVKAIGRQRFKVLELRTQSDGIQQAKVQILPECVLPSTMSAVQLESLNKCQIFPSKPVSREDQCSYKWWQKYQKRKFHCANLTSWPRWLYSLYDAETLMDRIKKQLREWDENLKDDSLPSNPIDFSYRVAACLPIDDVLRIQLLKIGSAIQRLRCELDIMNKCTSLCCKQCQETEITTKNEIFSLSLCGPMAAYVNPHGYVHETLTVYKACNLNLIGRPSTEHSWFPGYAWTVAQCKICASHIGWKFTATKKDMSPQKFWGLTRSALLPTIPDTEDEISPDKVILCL
Sequence of CRBN-DDB1 (Q16531 whole entry partner): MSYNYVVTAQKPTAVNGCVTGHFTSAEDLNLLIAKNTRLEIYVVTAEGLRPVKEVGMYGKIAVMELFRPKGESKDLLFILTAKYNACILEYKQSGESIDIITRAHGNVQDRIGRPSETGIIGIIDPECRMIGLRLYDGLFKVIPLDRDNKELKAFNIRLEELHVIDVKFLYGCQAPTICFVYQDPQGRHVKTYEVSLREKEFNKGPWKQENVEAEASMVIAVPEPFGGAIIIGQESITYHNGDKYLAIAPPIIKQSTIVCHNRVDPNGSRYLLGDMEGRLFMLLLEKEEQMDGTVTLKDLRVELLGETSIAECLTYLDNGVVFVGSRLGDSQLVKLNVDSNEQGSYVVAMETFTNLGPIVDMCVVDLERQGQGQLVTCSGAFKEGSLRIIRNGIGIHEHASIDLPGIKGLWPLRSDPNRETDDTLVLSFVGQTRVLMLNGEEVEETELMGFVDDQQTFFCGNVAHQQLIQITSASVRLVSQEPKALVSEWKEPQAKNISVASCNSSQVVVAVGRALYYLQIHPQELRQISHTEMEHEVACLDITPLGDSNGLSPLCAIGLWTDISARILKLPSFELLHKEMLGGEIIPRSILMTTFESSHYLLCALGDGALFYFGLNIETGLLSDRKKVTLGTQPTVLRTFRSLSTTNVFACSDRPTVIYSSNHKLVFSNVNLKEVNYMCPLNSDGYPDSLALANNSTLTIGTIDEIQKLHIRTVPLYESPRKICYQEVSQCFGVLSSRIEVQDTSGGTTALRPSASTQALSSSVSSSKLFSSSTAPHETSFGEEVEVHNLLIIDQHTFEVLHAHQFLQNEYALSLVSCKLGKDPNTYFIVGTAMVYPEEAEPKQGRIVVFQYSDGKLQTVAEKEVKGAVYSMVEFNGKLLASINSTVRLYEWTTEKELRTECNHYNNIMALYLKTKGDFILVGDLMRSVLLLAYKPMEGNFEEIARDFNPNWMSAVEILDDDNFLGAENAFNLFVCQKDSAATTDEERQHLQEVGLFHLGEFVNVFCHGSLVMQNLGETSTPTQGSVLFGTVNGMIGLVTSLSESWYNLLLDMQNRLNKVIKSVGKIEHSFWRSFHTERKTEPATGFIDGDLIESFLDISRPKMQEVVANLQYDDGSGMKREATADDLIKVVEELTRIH

Dmax (CDK2) [%]	Ki (CRBN-DDB1) [nM]	SMILES
10 to 50	100 to 1000	C[C@H]1CCC[C@@H]1OC(=O)NCc1ccc2c(c1)C(=O)N(C1CCC(=O)NC1=O)C2 (stereo partly drawn) [Compound 32, (1S,2S)-2-methylcyclopentyl N-{[2-(2,6-dioxopiperidin-3-yl)-3-oxo-2,3-dihydro-1H-isoindol-5-yl]methyl}carbamate]
10 to 50	100 to 1000	O=C1CCC(N2Cc3ccc(CNC(=O)OCCOC4COC4)cc3C2=O)C(=O)N1 (stereo not shown) [Compound 33, 2-(oxetan-3-yloxy)ethyl N-{[2-(2,6-dioxopiperidin-3-yl)-3-oxo-2,3-dihydro-1H-isoindol-5-yl]methyl}carbamate]
≤ 10	100 to 1000	CN1CCC(COC(=O)NCc2ccc3c(c2)C(=O)N(C2CCC(=O)NC2=O)C3)CC1 (stereo not shown) [Compound 34, (1-methylpiperidin-4-yl)methyl N-{[2-(2,6-dioxopiperidin-3-yl)-3-oxo-2,3-dihydro-1H-isoindol-5-yl]methyl}carbamate]
10 to 50	≤ 100	O=C1CCC(N2Cc3ccc(CNC(=O)OC4Cc5ccccc54)cc3C2=O)C(=O)N1 (stereo not shown) [Compound 35, bicyclo[4.2.0]octa-1,3,5-trien-7-yl N-{[2-(2,6-dioxopiperidin-3-yl)-3-oxo-2,3-dihydro-1H-isoindol-5-yl]methyl}carbamate]
≤ 10	≤ 100	CN1C(=O)CCC1COC(=O)NCc1ccc2c(c1)C(=O)N(C1CCC(=O)NC1=O)C2 (stereo not shown) [Compound 36, (1-methyl-5-oxopyrrolidin-2-yl)methyl N-{[2-(2,6-dioxopiperidin-3-yl)-3-oxo-2,3-dihydro-1H-isoindol-5-yl]methyl}carbamate]
10 to 50	≤ 100	O=C1CCC(N2Cc3ccc(CNC(=O)OCC4(c5ccccc5)CC(F)(F)C4)cc3C2=O)C(=O)N1 (stereo not shown) [Compound 38, (3,3-difluoro-1-phenylcyclobutyl)methyl N-{[2-(2,6-dioxopiperidin-3-yl)-3-oxo-2,3-dihydro-1H-isoindol-5-yl]methyl}carbamate]
≤ 10	100 to 1000	CN1CCC(COC(=O)NCc2ccc3c(c2)C(=O)N(C2CCC(=O)NC2=O)C3)C1 (stereo not shown) [Compound 39, (1-methylpyrrolidin-3-yl)methyl N-{[2-(2,6-dioxopiperidin-3-yl)-3-oxo-2,3-dihydro-1H-isoindol-5-yl]methyl}carbamate]
≤ 10	100 to 1000	CN1CCC(OC(=O)NCc2ccc3c(c2)C(=O)N(C2CCC(=O)NC2=O)C3)C1 (stereo not shown) [Compound 40, 1-methylpyrrolidin-3-yl N-{[2-(2,6-dioxopiperidin-3-yl)-3-oxo-2,3-dihydro-1H-isoindol-5-yl]methyl}carbamate]
10 to 50	100 to 1000	O=C1CCC(N2Cc3ccc(CNC(=O)OCC4CCCCO4)cc3C2=O)C(=O)N1 (stereo not shown) [Compound 41, (oxan-2-yl)methyl N-{[2-(2,6-dioxopiperidin-3-yl)-3-oxo-2,3-dihydro-1H-isoindol-5-yl]methyl}carbamate]
10 to 50	≤ 100	O=C1CCC(N2Cc3ccc(CNC(=O)OCC4CCOC4)cc3C2=O)C(=O)N1 (stereo not shown) [Compound 43, (oxolan-3-yl)methyl N-{[2-(2,6-dioxopiperidin-3-yl)-3-oxo-2,3-dihydro-1H-isoindol-5-yl]methyl}carbamate]
10 to 50	≤ 100	O=C1CCC(N2Cc3ccc(CNC(=O)OCC4CC(F)(F)C4)cc3C2=O)C(=O)N1 (stereo not shown) [Compound 46, (3,3-difluorocyclobutyl)methyl N-{[2-(2,6-dioxopiperidin-3-yl)-3-oxo-2,3-dihydro-1H-isoindol-5-yl]methyl}carbamate]
10 to 50	100 to 1000	O=C1CCC(N2Cc3ccc(CNC(=O)OCCC4CC(F)(F)C4)cc3C2=O)C(=O)N1 (stereo not shown) [Compound 47, 2-(3,3-difluorocyclobutyl)ethyl N-{[2-(2,6-dioxopiperidin-3-yl)-3-oxo-2,3-dihydro-1H-isoindol-5-yl]methyl}carbamate]
10 to 50	100 to 1000	O=C1CCC(N2Cc3ccc(CNC(=O)OCC4CC45CCOCC5)cc3C2=O)C(=O)N1 (stereo not shown) [Compound 52, {6-oxaspiro[2.5]octan-1-yl}methyl N-{[2-(2,6-dioxopiperidin-3-yl)-3-oxo-2,3-dihydro-1H-isoindol-5-yl]methyl}carbamate]
10 to 50	100 to 1000	O=C1CCC(N2Cc3ccc(CNC(=O)OCC4CCC(F)(F)C4)cc3C2=O)C(=O)N1 (stereo not shown) [Compound 54, (3,3-difluorocyclopentyl)methyl N-{[2-(2,6-dioxopiperidin-3-yl)-3-oxo-2,3-dihydro-1H-isoindol-5-yl]methyl}carbamate]
10 to 50	≤ 100	CC1(COC(=O)NCc2ccc3c(c2)C(=O)N(C2CCC(=O)NC2=O)C3)CCCCO1 (stereo not shown) [Compound 64, (2-methyloxan-2-yl)methyl N-{[2-(2,6-dioxopiperidin-3-yl)-3-oxo-2,3-dihydro-1H-isoindol-5-yl]methyl}carbamate]
50 to 80	≤ 100	CC1(CCCOC(=O)NCc2ccc3c(c2)C(=O)N(C2CCC(=O)NC2=O)C3)CC1 (stereo not shown) [Compound 65, 3-(1-methylcyclopropyl)propyl N-{[2-(2,6-dioxopiperidin-3-yl)-3-oxo-2,3-dihydro-1H-isoindol-5-yl]methyl}carbamate]
10 to 50	100 to 1000	COC1CC(COC(=O)NCc2ccc3c(c2)C(=O)N(C2CCC(=O)NC2=O)C3)C1 (stereo not shown) [Compound 66, (3-methoxycyclobutyl)methyl N-{[2-(2,6-dioxopiperidin-3-yl)-3-oxo-2,3-dihydro-1H-isoindol-5-yl]methyl}carbamate]
10 to 50	100 to 1000	CCOC1CC(COC(=O)NCc2ccc3c(c2)C(=O)N(C2CCC(=O)NC2=O)C3)C1 (stereo not shown) [Compound 67, (3-ethoxycyclobutyl)methyl N-{[2-(2,6-dioxopiperidin-3-yl)-3-oxo-2,3-dihydro-1H-isoindol-5-yl]methyl}carbamate]
50 to 80	≤ 100	CC(C)(CCOC(=O)NCc1ccc2c(c1)C(=O)N(C1CCC(=O)NC1=O)C2)C1CC1 (stereo not shown) [Compound 69, 3-cyclopropyl-3-methylbutyl N-{[2-(2,6-dioxopiperidin-3-yl)-3-oxo-2,3-dihydro-1H-isoindol-5-yl]methyl}carbamate]
≤ 10	100 to 1000	O=C1CCC(N2Cc3ccc(CNC(=O)OCC4(F)CCC4)cc3C2=O)C(=O)N1 (stereo not shown) [Compound 74, (1-fluorocyclobutyl)methyl N-{[2-(2,6-dioxopiperidin-3-yl)-3-oxo-2,3-dihydro-1H-isoindol-5-yl]methyl}carbamate]
50 to 80	100 to 1000	CC(C)(C)C1CC(OC(=O)NCc2ccc3c(c2)C(=O)N(C2CCC(=O)NC2=O)C3)C1 (stereo not shown) [Compound 84, 3-tert-butylcyclobutyl N-{[2-(2,6-dioxopiperidin-3-yl)-3-oxo-2,3-dihydro-1H-isoindol-5-yl]methyl}carbamate]
50 to 80	≤ 100	O=C1CCC(N2Cc3ccc(CNC(=O)OCC4C(F)(F)C45CC5)cc3C2=O)C(=O)N1 (stereo not shown) [Compound 86, {2,2-difluorospiro[2.2]pentan-1-yl}methyl N-{[2-(2,6-dioxopiperidin-3-yl)-3-oxo-2,3-dihydro-1H-isoindol-5-yl]methyl}carbamate]
10 to 50	100 to 1000	O=C1CCC(N2Cc3ccc(CNC(=O)OCC4CCC(F)(F)CC4)cc3C2=O)C(=O)N1 (stereo not shown) [Compound 88, (4,4-difluorocyclohexyl)methyl N-{[2-(2,6-dioxopiperidin-3-yl)-3-oxo-2,3-dihydro-1H-isoindol-5-yl]methyl}carbamate]
50 to 80	100 to 1000	CC(C)C1CCC(OC(=O)NCc2ccc3c(c2)C(=O)N(C2CCC(=O)NC2=O)C3)CC1 (stereo not shown) [Compound 89, 4-(propan-2-yl)cyclohexyl N-{[2-(2,6-dioxopiperidin-3-yl)-3-oxo-2,3-dihydro-1H-isoindol-5-yl]methyl}carbamate]
10 to 50	100 to 1000	O=C1CCC(N2Cc3ccc(CNC(=O)OC4CC5(CCOCC5)C4)cc3C2=O)C(=O)N1 (stereo not shown) [Compound 90, 7-oxaspiro[3.5]nonan-2-yl N-{[2-(2,6-dioxopiperidin-3-yl)-3-oxo-2,3-dihydro-1H-isoindol-5-yl]methyl}carbamate]
50 to 80	≤ 100	O=C1CCC(N2Cc3ccc(CNC(=O)OCC4CC5(C4)CC54CCC4)cc3C2=O)C(=O)N1 (stereo not shown) [Compound 93, {dispiro[3.0.3^5.1^4]nonan-2-yl}methyl N-{[2-(2,6-dioxopiperidin-3-yl)-3-oxo-2,3-dihydro-1H-isoindol-5-yl]methyl}carbamate]
